{
  "source": "patent US8080377B2",
  "about": "“Method for confirming the exposure on chrysene” (Korea Institute of Science and Technology, priority 2008, dated 2011)",
  "key": {"[1]": {"test": "Cytotoxicity assay (MTT assay), chrysene treated 48 hours", "type": "cell-based, human", "conditions": "human, HepG2 cells; HepG2, MTT, 48 hours; read-out: IC20 (concentration exhibiting 80% cell survival rate)", "experimental": "(§1) The human hepatoma cell line HepG2 (Korean Cell Line Bank) was cultured in DMEM (Gibco-BRL, USA) supplemented with 10% FBS in 100 mm dish until it grew 80%. The present inventors selected chrysene (Sigma-Aldrich, USA) among polycyclic aromatic hydrocarbons known to have carcinogenicity, based on the previous studies and reports. Chrysene was dissolved in DMSO. The concentration of vehicle was up to 0.1% in every experiment.\n(§2) MTT assay with the HepG2 cell line was performed according to the method of Mossman et al. (J. Immunol. Methods, 65: 55-63, 1983). The cells were inoculated in a 24-well plate containing DMEM at the concentration of 4×10^5 cells/well, to which chrysene dissolved in DMSO was treated. 48 hours later, MTT (3-[4,5-dimethylthiazol-2-yl]-2,5-diphenyltetra zolium bromide) was added at the concentration of 5 mg/ml, followed by culture at 37° C. for 3 hours. Then, medium was eliminated and generated formazan crystal was dissolved in 500 μl of DMSO. The solution was aliquoted in a 96 well-plate and OD540 was measured. Cytotoxicity in the HepG2 cell line caused by chrysene was investigated. As a result, IC20 was 34.97 µM (see FIG. 1) and thus the concentration of chrysene for the further experiment was determined as the above."}, "[2]": {"system": "HepG2 cell line", "test": "Cytotoxicity assay (MTT assay), chrysene treated 48 hours", "type": "cell-based, human", "conditions": "HepG2", "experimental": "as §1, §2"}, "[3]": {"system": "HepG2 cells", "test": "Quantitative real time RT-PCR of genes up- or down-regulated by chrysene", "type": "cell-based, human", "experimental": "[…]\nTo investigate and quantify the expressions of those genes, primers which can specifically proliferate of those genes' mRNA (see Table 4) were prepared, and quantitative real time RT-PCR was performed using My IQ Real-time PCR (Bio-rad, USA). […] To quantify PCR product, SYBR Green I (Bio-rad, USA) staining was performed. SYBR Green I staining is based on binding to double stranded DNA, so that as double stranded DNA increases during PCR, fluorescence intensity increases. […]"}, "[4]": {"system": "salmonella TA110 and TA98 strains", "conditions": "even under normal metabolic activity of the liver (rats); cited from earlier work"}, "[5]": {"conditions": "animal tests; cited from earlier work"}},
  "data": [
    {"smiles": "c1ccc2c(c1)ccc1c3ccccc3ccc21", "note": "[chrysene]", "values": [
      {"measurement": "IC20 at 48 h", "setting": "[1]", "result": 35, "unit": "µM"},
      {"measurement": "cytotoxicity in the human hepatoma cell line", "setting": "[2]", "result": "demonstrated cytotoxicity"},
      {"measurement": "expression profiles of 25 up-regulated genes and 10 down-regulated genes", "setting": "[3]", "result": "consistent with the result of oligo-microarray"},
      {"measurement": "mutagenicity in Ames tests", "setting": "[4]", "result": "showed mutagenicity"},
      {"measurement": "absorption rate through skin", "setting": "[5]", "result": "very slow"},
      {"measurement": "absorption via oral pathway", "setting": "[5]", "result": "absorbed"}
    ]}
  ]
}
